This is an account of results in patent publication US11844846B2, “Styrylbenzothiazole derivatives and uses in imaging methods” (Emory University, priority 2018, dated 2023).

Entries after “also recorded” stand apart in the source; their conditions may differ.

One series relates to α-Syn aggregated neurons. Kind of series: neuronal α-Syn aggregation model, fluorescent microscopy. The format is cell-based. The conditions noted are these: primary cultured neurons, AAV-α-Syn plus α-Syn PFFs. The text has this: A series of derivatives were synthesized by including an amino group and a methyl group on benzothiazole to increase the brain permeability and fluorescent signals. The derivatives were subsequently subjected to α-Syn PFFs binding assay and counter-screening with Tau and Aβ PFFs. […] These compounds were screened on the neuronal α-Syn, Tau and Aβ aggregation model for the binding selectivity. Primary cultured neurons were infected with AAV-α-Syn, AAV-Tau FL for 7 days, then treated with α-Syn, Tau or Aβ PFFs. In a few days, the positive compounds were added in the primary neurons with indicated aggregates and analyzed under fluorescent microscopy.
Primary cultured neurons were infected with AAV-α-Syn, AAV-Tau FL or AAV-APP fragment virus for 7 days, and then treated with α-Syn, Tau or Aβ PFFs by following the described protocols (Volpicelli-Daley et al., 2014). In a few days, the positive compounds were added in the primary neurons with indicated aggregation.

The target of another series is α-Syn fibrils (Homo sapiens, UniProt P37840). In words: competitive binding assay with α-Syn fibrils and [18F]F0502B. The conditions noted are these: fixed concentrations of α-Syn fibrils and [18F]F0502B, increasing concentrations of cold compound.
The target of a further series is Tau PFFs (Homo sapiens, UniProt P10636). In words: fluorescence spectroscopy titration with Tau PFFs. In kind it is binding. To be noted: 0.08 μM fibrils, 5 μM small molecule; result in words. The protocol: (§1) A fluorescent titration assay was conducted. The fluorescent emission intensities were determined with 0.08 μM of various fibrils in the presence of 5 μM of the small molecules.
(§2) To further investigate the selected compounds binding activities with α-Syn PFFs, fluorescence spectroscopy titrations were conducted to quantitatively measure compounds emission intensity when interacting with different concentrations of α-Syn PFFs. The UV spectrum of each compound was determined and selected for the optimal wavelength to conduct the fluorescence spectroscopic studies.

In series [1] the target is T1, senile plaques in 5×FAD and 3×Tg mice brain sections (Homo sapiens, UniProt P05067).
T1 construct: Aβ-enriched senile plaques; from tissue; host or cells: brain sections of 5×FAD and 3×Tg mice
In words: staining of mouse brain sections with senile plaques. The format is binding.

Series [2] concerns NFT in Tau P301S and 3×Tg mice brain sections. Kind of series: staining of mouse brain sections with NFT. The format is binding. The protocol:
(§3) To further explore whether the positive compounds selectively bind to the Lewy bodies, α-Syn A53T patient-derived mutant virus injected WT mice brain slices were employed. These mice display extensive Lewy bodies in the SN.
(§4) To further explore whether the positive compounds selectively bind to the Lewy bodies, a α-Syn A53T patient-derived mutant virus was injected into WT mice brain slices. These mice display extensive Lewy bodies in the Substantial nigra (SN). Moreover, P301S mice expressed neurofibrillary tangles (NFT). The Lewy bodies were labeled with p-α-Syn S129 antibody and the positive aggregates were also labeled with the fluorescent signals from the small molecules. […] However, it was worth noting that almost none of the tested compounds were reactive with NFT.

Series [3] concerns the target T2, Lewy bodies positive with anti-p-α-Syn S129 in A53T PD mouse model (Homo sapiens, UniProt P37840, A53T).
T2 construct: from tissue; host or cells: brain (substantia nigra) of wild-type mice injected with α-Syn A53T virus
In words: brain section staining after in vivo administration, Lewy bodies. The protocol:
(§5) […] In 2 h, the mice were sacrificed and stained the mouse brain sections with anti-Aβ, AT8 and p-S129 and ThS, respectively.
(§6) The p-S129 positive Lewy bodies in A53T PD mice were further confirmed by anti-aggregated α-Syn 5G2 antibody.

The subject of series [4] is senile plaques or NFT in AD. In words: ex vivo screening on AD patient brain sections. The format is binding, human. The text has this: (§7) Ex vivo screening was extended into human DLB, MSA and AD patient samples. […] Since there are detectable α-Syn aggregates in AD patient brains, these compounds colocalized with p-S129 positive α-Syn inclusions.
(§8) The ex vivo screening was extended into human DLB, MSA and AD patient samples. Neurodegenerative disease of DLB (dementia with Lewy Bodies) and MSA belongs to synucleinopathies with well-defined Lewy bodies.

The nature of series [5]: F0502B in vivo PK study and B/P ratios. The arrangement: species or system mouse. To be noted: mice, i.v. 5 mg/kg. The protocol: To ensure that F0502B meets a PET tracer's kinetic criteria with rapid penetration into the brain and swift wash out, an in vivo PK study was performed in mice with i.v. injection of 5 mg/kg of F0502B.
The next series concerns the target T3, Aβ PFFs (Homo sapiens, UniProt P05067).
T3 construct: counter-screening with Tau and Aβ PFFs
Kind of series: fluorescence spectroscopy titration with Aβ PFFs. In kind it is binding. The conditions noted are these: 0.08 μM fibrils, 5 μM small molecule; result in words. As for the experimental part:
as §1, §2

For a further series, the target named is α-Syn PFFs (Homo sapiens, UniProt P37840). In words: fluorescence spectroscopy titration with α-Syn PFFs. In kind it is binding. The conditions noted are these: 0.08 μM fibrils, 5 μM small molecule; result in words. As for the experimental part:
as §1, §2

The subject of series [6] is senile plaques and NFT in 5×FAD, 3×Tg and Tau P301S mice. Kind of series: brain section staining after in vivo administration, senile plaques and NFT. The arrangement: species or system mouse. As for the experimental part:
as §5, §6

For series [7], the target named is T4, Lewy bodies in α-Syn A53T virus injected WT mice brain slices (Homo sapiens, UniProt P37840, A53T).
T4 construct: from tissue; host or cells: brain (substantia nigra) of wild-type mice injected with α-Syn A53T virus
Kind of series: staining of mouse brain slices with Lewy bodies. The format is binding. The protocol: as §3, §4

Series [8] deals with T5, Lewy bodies in the brain sections from LBD patients (Homo sapiens, UniProt P37840).
T5 construct: from tissue; host or cells: brain sections of LBD patients
In words: autoradiography with [18F]F0502B, human brain slices. The format is binding. To be noted: excessive cold compound. As for the experimental part: [^18F]F0502B was evaluated in vitro and ex vivo binding assays to validate its specificity. α-Syn, Tau and Aβ PFFs were respectively incubated with increasing concentrations of [^18F]F0502B. The binding data were analyzed by curve fitting using nonlinear regression to obtain Kd and Bmax values. The Kd and a Bmax manifested the specific binding affinity with different fibrils. […] Autoradiography with [^18F]F0502B in human brain slices was performed. […] Together, these findings support that F0502B specifically and tightly binds to α-Syn fibrils in the Lewy bodies.

Series [9] has as its target T6, LBs and LNs in DLB and MSA patient brains (Homo sapiens, UniProt P37840).
T6 construct: from tissue; host or cells: brain sections of DLB and MSA patients
In words: ex vivo screening on DLB and MSA patient brain sections. In kind it is binding.
Description: as §7, §8

T3 sequence (P05067 672-713 limits assumed): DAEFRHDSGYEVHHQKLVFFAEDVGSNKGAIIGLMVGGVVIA
T1 sequence (P05067 672-713 limits assumed): as above
Chain of Tau PFFs (P10636 whole entry): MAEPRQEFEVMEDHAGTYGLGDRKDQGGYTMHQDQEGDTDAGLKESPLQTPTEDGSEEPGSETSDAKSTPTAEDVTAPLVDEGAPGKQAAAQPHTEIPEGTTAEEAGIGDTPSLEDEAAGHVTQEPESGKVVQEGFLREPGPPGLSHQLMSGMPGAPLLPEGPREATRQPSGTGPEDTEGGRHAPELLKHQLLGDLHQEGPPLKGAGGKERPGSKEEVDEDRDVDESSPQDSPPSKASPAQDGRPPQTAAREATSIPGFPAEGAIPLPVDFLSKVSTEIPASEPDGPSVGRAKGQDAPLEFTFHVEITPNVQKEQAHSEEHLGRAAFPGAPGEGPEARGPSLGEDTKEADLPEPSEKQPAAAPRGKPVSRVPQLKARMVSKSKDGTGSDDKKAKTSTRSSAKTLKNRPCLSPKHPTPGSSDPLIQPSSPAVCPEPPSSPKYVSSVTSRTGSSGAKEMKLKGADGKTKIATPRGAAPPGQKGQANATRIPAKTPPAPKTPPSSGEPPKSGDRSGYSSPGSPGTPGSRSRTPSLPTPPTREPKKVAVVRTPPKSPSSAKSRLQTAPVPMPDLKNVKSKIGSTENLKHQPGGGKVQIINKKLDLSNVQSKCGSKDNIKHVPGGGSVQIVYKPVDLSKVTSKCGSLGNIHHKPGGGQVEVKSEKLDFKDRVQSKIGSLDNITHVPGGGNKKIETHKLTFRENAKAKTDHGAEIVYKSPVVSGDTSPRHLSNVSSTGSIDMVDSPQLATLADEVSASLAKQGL

Consider `Cc1cc2nc(/C=C/c3ccc(O)c(Br)c3)sc2cc1N(C)CCOCCF` [F0502B, (E)-2-bromo-4-(2-(6-((2-(2-fluoroethoxy)ethyl)(methyl)amino)-5-methylbenzo[d]thiazol-2-yl)vinyl)phenol], for which the “fluorescent signal in α-Syn aggregated neurons” value with α-Syn aggregated neurons is reported as “specifically associated with α-Syn aggregates”. Also, the “displacement of [18F]F0502B from α-Syn fibrils” value at α-Syn fibrils is recorded as “selectively stripped off by increasing concentrations of cold F0502B”. Further, the “binding to Tau PFFs by fluorescent emission intensity” value on Tau PFFs is “barely bound to Aβ or Tau fibrils”. For the same molecule, the “staining of senile plaques” value in series [1] is “not senile plaques or NFT from 5×FAD, 3×Tg and Tau P301S mice”. Also, the “staining of NFT” value in series [2] was “not senile plaques or NFT from 5×FAD, 3×Tg and Tau P301S mice”. Moreover, the “co-localisation with anti-p-S129 stained Lewy bodies” value in series [3] (F0502B 5 mg/kg i.v., mice sacrificed in 2 h, ThS stain on sections) was “colocalized with both F0502B and ThS”. Further, the “staining of Lewy body by brain generated F0502B” value in [3] (two hours after tail injection of 2 mg/kg of compound 13, A53T mice) is “selectively stained Lewy body in A53T mice”. Moreover, the “staining of senile plaques or NFT (Aβ, AT8 positive aggregates)” value in series [4] was “not senile plaques or NFT from 5×FAD, 3×Tg and Tau P301S mice or AD patients”. Moreover, the C1 rate result in series [5] is on record as “approximately 3.92 L/h/kg”. Further, the decay in plasma entry in series [5] (result in words) was “almost completely decayed at 8 h in the plasm”. The “brain entry and accumulation” value in series [5] (result in words, 5 mg/kg) is “swiftly entered the brain and accumulated in the brain compared to the plasma; also recorded: preferentially enriched in the brain”. Also, the Kp at 0.5 h in series [5] (mouse, brain, iv, 0.5 h, read-out: B/P ratio) came to 4.16. For the same molecule, the Kp at 1 h in series [5] (mouse, brain, iv, 1 h, read-out: B/P ratio) is 13.4. Further, the Kp at 4 h in [5] (mouse, brain, iv, 4 h, read-out: B/P ratio) stood at 26. In addition, the half-life in series [5] (mouse, plasma, iv, read-out: half-life t1/2 (converted)) was 1.16 h. In addition, on Aβ PFFs, the “binding to Aβ PFFs by fluorescent emission intensity” value is reported as “barely bound to Aβ or Tau fibrils”. The “binding to α-Syn PFFs by fluorescent emission intensity” value on α-Syn PFFs was “specifically associated with α-Syn fibrils”. Also, the “staining of senile plaques and NFT” value in series [6] (F0502B 5 mg/kg i.v., 2 h, 5×FAD, 3×Tg, Tau P301S mice) is reported as “does not co-stain Aβ or Tau aggregates”. Also, the “staining of senile plaques or NFT by brain generated F0502B” value in series [6] (two hours after tail injection of 2 mg/kg of compound 13, AD mouse models) is reported as “not senile plaques or NFT in various AD mouse models”. Further, in [7], the “staining of Lewy bodies (p-α-Syn S129 positive)” value is recorded as “specifically associated with α-Syn aggregates”. Moreover, the “blocking of [18F]F0502B binding in brain sections” value in series [8] is given as “binding activities were blocked by excessive cold F0502B”. Further, in series [9], the “staining of LBs and LNs” value was “specifically associated with α-Syn aggregates”.
